The test system of assay [1] is Bacillus spizizenii. The assay can be described thus: Antimicrobial activity against Bacillus subtilis ATCC 6633 after 24 hrs by serial two fold dilution method. It counts as functional. Particulars: ATCC 6633, 24 h.
The test system of assay [2] is Escherichia coli. In words: Antimicrobial activity against Escherichia coli ATCC 25922 after 24 hrs by serial two fold dilution method. It counts as functional. Particulars: ATCC 25922, 24 h.
The test system of assay [3] is K562. In words: Cytotoxicity against human K562 cells assessed as reduction in cell viability after 72 hrs by MTT assay. In kind it is functional, cell-based. To be noted: K562, 72 h. For orientation: Tetrazolium assays rely on reduction of a dye to a coloured formazan, in cell work by metabolically active cells.
The test system of assay [4] is Micrococcus luteus. The assay can be described thus: Antimicrobial activity against Micrococcus luteus IFC 12708 after 24 hrs by serial two fold dilution method. In kind it is functional. Particulars: IFC 12708, 24 h.
The subject of assay [5] is Salmonella typhimurium. In words: Antimicrobial activity against Salmonella typhimurium ATCC 14028 after 24 hrs by serial two fold dilution method. Particulars: Salmonella enterica, ATCC 14028, 24 h. In kind it is functional, Salmonella enterica subsp. enterica serovar Typhimurium.
For assay [6], the system named is A549. In words: Cytotoxicity against human A549 cells assessed as reduction in cell viability after 72 hrs by MTT assay. In kind it is functional, cell-based. Particulars: A549, 72 h.
Assay [7] relates to Staphylococcus aureus. The assay can be described thus: Antimicrobial activity against Staphylococcus aureus ATCC 6538P after 24 hrs by serial two fold dilution method. It counts as functional.
Assay [8] has as its system Proteus vulgaris. The assay can be described thus: Antimicrobial activity against Proteus vulgaris ATCC 3851 after 24 hrs by serial two fold dilution method. In kind it is functional. To be noted: ATCC 3851, 24 h.

What is called MIC is the least concentration at which growth counts as inhibited. In general, IC50 refers to the concentration that gives 50% inhibition.

Regarding `C[C@@H]1CCCCCCCNC1`, the MIC in assay [1], in assay [2], in assay [4], in assay [5], in assay [7] and in assay [8] was ≥ 128 µM in each case. The IC50 in assay [3] amounted to 3.2 µM; in assay [6], 3.8 µM.
Take `COC(=O)[C@H](C)[N@@+]1(C=O)CC[C@H]2CCCCCCCCCC[C@H]2[C@@H](C)C1`: the minimum inhibitory concentration (MIC) in assay [1], in assay [2], in assay [4], in assay [5], in assay [7] and in assay [8] was ≥ 128 µM throughout. For the same molecule, the half-inhibitory concentration (IC50) in assay [3] stood at 7.4 µM; in assay [6], 3 µM.
As to `COc1cccc2c1C(=O)c1c(O)c3c(c(O)c1C2=O)C[C@@](O)(C(=O)CO)C[C@@H]3O[C@H]1C[C@H](N)[C@H](O)[C@H](C)O1` [DOXORUBICIN], the figures for the half-inhibitory concentration (IC50) in assay [3] and in assay [6] were 0.8 µM and 0.5 µM, respectively.

The values are drawn from ChEMBL document CHEMBL4477188, “Callyazepin and (3R)-Methylazacyclodecane, Nitrogenous Macrocycles from a Callyspongia sp. Sponge” (J Nat Prod, 2016).
